Broadly, the IC50 is the concentration needed to halve the response being measured.

Holding throughout (test): biochemical
Test [1] addresses First described human Rapamycin receptor, hFKBP12 (Homo sapiens, UniProt P62942).
The target of test [2] is Human Cyclosporin A receptor with 18 kDa molecular weight, hCyp18 (Homo sapiens, UniProt P62937).
The target of test [3] is Leishmonia pneumophila virulence Cyclosporin A receptor with 18 kDa molecular weight, LpCyp18 (Legionella pneumophila subsp. pneumophila, UniProt Q5ZRZ4).
Test [4] has as its target T1, Bacterial Juglon sensitive non proteolytic enzyme, EcParv (Escherichia coli, UniProt P0A9L5).
T1 sequence (P0A9L5 1-93): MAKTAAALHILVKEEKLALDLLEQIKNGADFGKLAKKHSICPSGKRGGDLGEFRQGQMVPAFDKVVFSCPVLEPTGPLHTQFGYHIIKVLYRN

Bounds are passed on as bounds.

Sequence of Human Cyclosporin A receptor with 18 kDa molecular weight, hCyp18 (P62937 whole entry): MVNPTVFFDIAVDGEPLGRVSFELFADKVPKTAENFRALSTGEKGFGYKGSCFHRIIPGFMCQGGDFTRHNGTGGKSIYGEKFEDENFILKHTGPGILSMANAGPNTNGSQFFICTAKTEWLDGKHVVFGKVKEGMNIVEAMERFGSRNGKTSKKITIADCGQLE
Sequence of Leishmonia pneumophila virulence Cyclosporin A receptor with 18 kDa molecular weight, LpCyp18 (Q5ZRZ4 1-164 limits assumed): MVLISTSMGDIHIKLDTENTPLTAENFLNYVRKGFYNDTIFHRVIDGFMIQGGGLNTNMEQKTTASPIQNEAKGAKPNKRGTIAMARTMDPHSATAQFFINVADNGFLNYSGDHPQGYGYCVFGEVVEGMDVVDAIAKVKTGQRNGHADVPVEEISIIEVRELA
Sequence of First described human Rapamycin receptor, hFKBP12 (P62942 whole entry): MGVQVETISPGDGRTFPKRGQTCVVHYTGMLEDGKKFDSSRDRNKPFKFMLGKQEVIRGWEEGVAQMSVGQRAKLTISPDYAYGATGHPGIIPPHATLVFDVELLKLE

For `N#CCCNC(=S)Nc1ccc([N+](=O)[O-])cc1` [Compound 4], the concentration for half-maximal inhibition (IC50) in test [1] was > 100 µM; in test [2], > 100 µM; in test [3], > 100 µM; in test [4], 10 to 50 µM.

These data come from patent publication EP1433779A1, “Use of nitriles as inhibitors of non-proteolytic enzymes” (Jerini AG, priority 2002, dated 2004).
